Patent US11160817B2, “Nutritional compositions comprising neuroprotective dietary oligosaccharides” (ABBOTT LABORATORIES, priority 2012, dated 2021)
Read-outs that look alike come from different tables or passages of the source. Marks after values point to notes of the source that are not given here.

Key:
[1] = tested on: fecal samples from breast-fed infants (intestinal flora); test: Anaerobic fermentation of HMOs with fecal inocula of breast-fed infants, agmatine in supernatant by GC/MS and LC/MS/MS; assay type: cell-based, human; settings: for Increase of agmatine, HMO/blank (relative ratio of agmatine compared to the blank): breast fed infants, fermentation culture 37° C.
Experimental: (§1) Fecal samples from eight human babies, one group of four breast-fed and the other group of four formula-fed, were used as inocula for anaerobic fermentation (37° C.) of lacto-N-neotetraose (LNnT) and 2′-fucosyllactose. Supernatants from the fermentation cultures were sampled at 0 hr, 3 hr, and 6 hr. A culture without addition of HMOs served as a control. A sample of the fermentation medium (blank), which constituted approximately 90% of the starting culture volume, was also analyzed.
(§2) Samples were extracted and split into equal parts for analysis on GC/MS and LC/MS/MS platforms. Agmatine ions were identified in chromatograms, and peak area was integrated for quantitative analysis.

[2] = tested on: fecal samples from formula-fed infants (intestinal flora); test: Anaerobic fermentation of HMOs with fecal inocula of formula-fed infants, agmatine in supernatant by GC/MS and LC/MS/MS; assay type: cell-based, human; settings: for Increase of agmatine, HMO/blank (relative ratio of agmatine compared to the blank): formula fed infants, fermentation culture 37° C.
Experimental: as §1, §2

[3] = mice, peripheral injection at 50 and 300 mg/kg; cited from earlier work
[4] = tested on: nitric oxide synthase (NOS), all isoforms; settings: cited from earlier work
[5] = tested on: NMDA subclass of glutamate receptors; settings: cited from earlier work
[6] = non-human primates, peripheral injection at 50 and 300 mg/kg; cited from earlier work

SMILES | Increase of agmatine, HMO/blank (relative ratio of agmatine compared to the blank) ([1]; 0 h) | Increase of agmatine, HMO/blank (relative ratio of agmatine compared to the blank) ([1]; 3 h) | Increase of agmatine, HMO/blank (relative ratio of agmatine compared to the blank) ([1]; 6 h) | agmatine relative to a blank (in words) ([1]; fecal samples from breast-fed infants (BF)) | agmatine relative to a blank (in words) ([2]; fecal samples from formula-fed infants (FF)) | Increase of agmatine, HMO/blank (relative ratio of agmatine compared to the blank) ([2]; 0 h) | Increase of agmatine, HMO/blank (relative ratio of agmatine compared to the blank) ([2]; 3 h) | Increase of agmatine, HMO/blank (relative ratio of agmatine compared to the blank) ([2]; 6 h) | brain agmatine concentrations [3] | inhibition of NOS isoforms [4] | nitric oxide production [4] | affinity for the NMDA subclass of glutamate receptors [5] | brain agmatine concentrations [6]
CC(=O)N[C@H]1[C@H](O[C@H]2[C@@H](O)[C@@H](CO)O[C@@H](O[C@H]3[C@H](O)[C@@H](O)C(O)O[C@@H]3CO)[C@@H]2O)O[C@H](CO)[C@@H](O[C@@H]2O[C@H](CO)[C@H](O)[C@H](O)[C@H]2O)[C@@H]1O (mixture of isomers) [LNnT, lacto-N-neotetraose] | 9.52^a | 34.4 | 1.59 | dramatic increases in agmatine | dramatic increases in agmatine | 2.12 | 61.77^a | 75.02^a | – | – | – | – | –
N=C(N)NCCCCN [agmatine] | – | – | – | – | – | – | – | – | significant increases in brain agmatine concentrations | inhibit all isoforms of NOS | suppress nitric oxide production | modest affinity | significant increases in brain agmatine concentrations
